The source of these data is patent US8853193B2, “Thienopyrimidines containing a substituted alkyl group for pharmaceutical compositions” (Boehringer Ingelheim International GmbH, priority 2010, dated 2014).

Molecules are shown by their SMILES. Counter-ions that a name gives are not always drawn.

Chain of human Mnk2a (Q9HBH9 whole entry): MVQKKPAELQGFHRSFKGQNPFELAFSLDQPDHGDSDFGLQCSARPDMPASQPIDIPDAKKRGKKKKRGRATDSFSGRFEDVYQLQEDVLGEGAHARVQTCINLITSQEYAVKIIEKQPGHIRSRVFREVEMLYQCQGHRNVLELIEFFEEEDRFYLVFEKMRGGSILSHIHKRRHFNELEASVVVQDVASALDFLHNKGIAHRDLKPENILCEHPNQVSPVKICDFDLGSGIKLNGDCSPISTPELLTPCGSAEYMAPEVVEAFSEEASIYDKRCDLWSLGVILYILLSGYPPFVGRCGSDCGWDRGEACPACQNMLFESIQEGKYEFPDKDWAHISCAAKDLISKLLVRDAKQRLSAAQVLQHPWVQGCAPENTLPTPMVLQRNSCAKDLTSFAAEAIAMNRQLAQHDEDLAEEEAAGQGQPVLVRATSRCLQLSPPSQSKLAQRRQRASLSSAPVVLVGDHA

This assay addresses human Mnk2a (Homo sapiens (Human), UniProt Q9HBH9). As to the kind of experiment: Mnk2a in vitro kinase assay (indirect competitive fluorescence polarization). In kind it is biochemical. Particulars: pre-activated GST-Mnk2a 2.5 nM, 20 μM ATP, 30 μM substrate peptide; read-out: MNK2 IC50. The method in brief:
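GST-tagged human Mnk2a expressed in E. coli and glutathione-purified, then activated at 2.5 μM with 150 nM pre-activated NHis-ERK2 and 50 μM ATP in HEPES/KOH pH 7.4, MgCl2, DTT, Brij 78 for 45 min at 30 °C. Phospho-peptide product read by indirect competitive fluorescence polarization against fluorophore-labelled phospho-peptide bound to phospho-specific antibody.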
A general note: In fluorescence polarisation assays a small probe gives low polarisation when free and higher when bound to something large.
With `COCC(C)Oc1ncccc1Nc1ncnc2sc(C(N)=O)c(C)c12` (stereo not shown) [Compound 28-3, 4-(2-(1-Methoxygrogan-2-yloxy)gyridin-3-ylamino)-5-methyl-thieno[2,3-d]gyrimidine-6-carboxamide], the IC50 (as a rule, the concentration at which inhibition is half-maximal) was found to be 26 nM.

Regarding `COCC(C)Oc1ncccc1Nc1ncnc2sc(C(=O)NCCO)c(C)c12` (stereo not shown) [Compound 28-4, N-(2-hydroxy-ethyl)-4-(2-(1-methoxy-propan-2-yloxy)pyridin-3-ylamino)-5-methylthieno-[2,3-d]-pyrimidine-6-carbox-amide], the IC50 is 78 nM.

In the case of `COCC(C)Oc1ncccc1Nc1ncnc2sc(C(=O)NCCCN(C)C)c(C)c12` (stereo not shown) [Compound 28-5, N-(3-(di-methylamino)propyl)-4-(2-(1-methoxy-propan-2-yloxy)pyridin-3-ylamino)-5-methlthieno-[2,3-d]pyrimi-dine-6-carboxamide hydrochloride], the 50% inhibitory concentration (IC50) stood at 93 nM.

As to `Cc1c(C(N)=O)sc2ncnc(Nc3cccnc3OCCO)c12` [Compound 29-3, 4-(2-(2-Hydroxyethoxy)pyridin-3-ylamino)-5-methylthieno[2,3-d]pyrimidine-6-carboxamide], the IC50 stood at 86 nM.

Consider `Cc1c(C(=O)NCCCN(C)C)sc2ncnc(Nc3cccnc3OCCO)c12` [Compound 29-4, N-(3-(dimethyl-amino)propyl)-4-(2-(2-hydroxy-ethoxy)pyridin-3-ylamino)-5-methylthieno[2,3-d]pyrimidine-6-carboxamide hydrochloride], for which the half-inhibitory concentration (IC50) amounted to 288 nM.

Regarding `Cc1c(C(=O)O)sc2ncnc(Nc3cccnc3OCC(F)F)c12` [Compound 30-2, 4-(2-(2,2-Difluoroethoxy)pyridin-3-ylamino)-5-methylthieno[2,3-d]pyrimidine-6-carboxylic acid], the 50% inhibitory concentration (IC50) was 20 nM.

Turning to `Cc1c(C(N)=O)sc2ncnc(Nc3cccnc3OCC(F)F)c12` [Compound 30-3, 4-(2-(2,2-Difluoroethoxy)pyridin-3-ylamino)-5-methyl-thieno[2,3-d]pyrimidine-6-carboxamide], the IC50 turned out to be 18 nM.

Take `Cc1c(C(=O)NCCO)sc2ncnc(Nc3cccnc3OCC(F)F)c12` [Compound 30-4, 4-(2-(2,2-difluoroethoxy)-pyridin-3-ylamino)-N-(2-hydroxy-ethyl)-5-methylthieno [2,3-d]pyrimi-dine-6-carboxamide]: the IC50 was 48 nM.

As to `Cc1c(C(=O)NCCCN(C)C)sc2ncnc(Nc3cccnc3OCC(F)F)c12` [Compound 30-5, 4-(2-(2,2-difluoroethoxy)-pyridin-3-ylamino)-N-(3-(dimethyl-amino)propyl)-5-methyl-thieno[2,3-d]pyrimidine-6-carbox-amide hydro-chloride], the IC50 came to 57 nM.

As to `CCNC(=O)C(C)Oc1cc(F)ccc1Nc1ncnc2sc(C(N)=O)c(C)c12` (stereo not shown) [Compound 31-5, 4-(2-(1-(Ethylamino)-1-oxopropan-2-yloxy)-4-fluorophenylamino)-5-methyl-thieno[2,3-d]pyrimidine-6-carboxamide], the IC50 turned out to be 11 nM.

As to `CCNC(=O)C(C)Oc1cc(F)ccc1Nc1ncnc2sc(C(=O)NC)c(C)c12` (stereo not shown) [Compound 31-6, 4-(2-(1-(ethylamino)-1-oxo-propan-2-yloxy)-4-fluorophenyl-amino)-N,5-dimethyl-thieno[2,3-d]pyrimidine-6-carbox-amide], the IC50 amounted to 13 nM.

As to `Cc1c(C(=O)O)sc2ncnc(Nc3ccc(F)cc3OCC3(CC#N)CC3)c12` [Compound 32-2], the IC50 was 19 nM.

For `Cc1c(C(=O)O)sc2ncnc(Nc3ccc(F)cc3OCC(F)F)c12` [Compound 32-4], the half-maximal inhibitory concentration (IC50) came out at 13 nM.

As for `Cc1c(C(=O)O)sc2ncnc(Nc3ccc(F)cc3OCC3CC3(F)F)c12` (stereo not shown) [Compound 32-5], the IC50 came out at 8 nM.

Turning to `COCC(CF)Oc1cc(F)ccc1Nc1ncnc2sc(C(=O)O)c(C)c12` (stereo not shown) [Compound 32-6], the IC50 is 23 nM.

Regarding `Cc1c(C(=O)O)sc2ncnc(Nc3ccc(F)cc3OCCO)c12` [Compound 32-9], the concentration for half-maximal inhibition (IC50) amounted to 13 nM.

With `COCC(C)Oc1cc(F)ccc1Nc1ncnc2sc(C(=O)O)c(C)c12` (stereo not shown) [Compound 32-10], the IC50 came out at 18 nM.

Turning to `Cc1c(C(=O)O)sc2ncnc(Nc3ccc(F)cc3OCCC(F)(F)F)c12` [Compound 32-11], the IC50 amounted to 14 nM.

`Cc1c(C(=O)O)sc2ncnc(Nc3ccc(F)cc3OCC(C)F)c12` (stereo not shown) [Compound 32-12]: the 50% inhibitory concentration (IC50) came to 12 nM.

Regarding `Cc1c(C(=O)NCCO)sc2ncnc(Nc3ccc(F)cc3OCC3(CC#N)CC3)c12` [Compound 32-14], the half-inhibitory concentration (IC50) was 65 nM.

As for `Cc1c(C(=O)NCCCN(C)C)sc2ncnc(Nc3ccc(F)cc3OCC3(CC#N)CC3)c12` [Compound 32-15], the IC50 turned out to be 78 nM.

For `Cc1c(C(=O)NCCCN(C)C)sc2ncnc(Nc3ccc(F)cc3OCC(F)(F)F)c12` [Compound 32-16], the IC50 was determined as 66 nM.

On to `Cc1c(C(N)=O)sc2ncnc(Nc3ccc(F)cc3OCC(F)F)c12` [Compound 32-17], for which the half-inhibitory concentration (IC50) was found to be 16 nM.

On to `Cc1c(C(=O)NCCO)sc2ncnc(Nc3ccc(F)cc3OCC(F)F)c12` [Compound 32-18], for which the IC50 came to 30 nM.

As to `Cc1c(C(=O)NCCCN(C)C)sc2ncnc(Nc3ccc(F)cc3OCC(F)F)c12` [Compound 32-19], the IC50 worked out at 23 nM.

For the compound `Cc1c(C(=O)NCCO)sc2ncnc(Nc3ccc(F)cc3OCC3CC3(F)F)c12` (stereo not shown) [Compound 32-20], the IC50 came out at 19 nM.

In the case of `Cc1c(C(N)=O)sc2ncnc(Nc3ccc(F)cc3OCC3CC3(F)F)c12` (stereo not shown) [Compound 32-21], the IC50 came out at 8 nM.

For the compound `Cc1c(C(=O)NCCCN(C)C)sc2ncnc(Nc3ccc(F)cc3OCC3CC3(F)F)c12` (stereo not shown) [Compound 32-22], the IC50 was found to be 36 nM.

As to `COCC(CF)Oc1cc(F)ccc1Nc1ncnc2sc(C(=O)NCCO)c(C)c12` (stereo not shown) [Compound 32-23], the concentration for half-maximal inhibition (IC50) amounted to 26 nM.

`COCC(CF)Oc1cc(F)ccc1Nc1ncnc2sc(C(=O)NCCCN(C)C)c(C)c12` (stereo not shown) [Compound 32-24]: the IC50 was 25 nM.

Consider `COCC(CF)Oc1cc(F)ccc1Nc1ncnc2sc(C(=O)NCCO)c(C)c12` (stereo not shown) [Compound 32-25], for which the IC50 is 13 nM.

As to `Cc1c(C(=O)NCCO)sc2ncnc(Nc3ccc(F)cc3OC(C)CF)c12` (stereo not shown) [Compound 32-27], the IC50 came out at 7 nM.

In the case of `Cc1c(C(N)=O)sc2ncnc(Nc3ccc(F)cc3OC(C)CF)c12` (stereo not shown) [Compound 32-28], the IC50 was 3 nM.

As to `Cc1c(C(=O)NCCO)sc2ncnc(Nc3ccc(F)cc3OC(CO)CO)c12` [Compound 32-29], the half-inhibitory concentration (IC50) came out at 170 nM.

Consider `Cc1c(C(N)=O)sc2ncnc(Nc3ccc(F)cc3OC(CO)CO)c12` [Compound 32-30], for which the half-inhibitory concentration (IC50) was 56 nM.

For the compound `Cc1c(C(=O)NCCCN(C)C)sc2ncnc(Nc3ccc(F)cc3OC(CO)CO)c12` [Compound 32-31], the IC50 came to 146 nM.

With `Cc1c(C(N)=O)sc2ncnc(Nc3ccc(F)cc3OCCO)c12` [Compound 32-32], the IC50 was found to be 27 nM.

With `Cc1c(C(=O)NCCO)sc2ncnc(Nc3ccc(F)cc3OCCO)c12` [Compound 32-33], the IC50 amounted to 65 nM.

Take `Cc1c(C(=O)NCCCN(C)C)sc2ncnc(Nc3ccc(F)cc3OCCO)c12` [Compound 32-34]: the IC50 is 69 nM.

Regarding `COCC(C)Oc1cc(F)ccc1Nc1ncnc2sc(C(=O)NCCCN(C)C)c(C)c12` (stereo not shown) [Compound 32-35], the IC50 is 35 nM.

With `COCC(C)Oc1cc(F)ccc1Nc1ncnc2sc(C(=O)NCCO)c(C)c12` (stereo not shown) [Compound 32-36], the IC50 was 25 nM.

As for `COCC(C)Oc1cc(F)ccc1Nc1ncnc2sc(C(N)=O)c(C)c12` (stereo not shown) [Compound 32-37], the half-maximal inhibitory concentration (IC50) came out at 8 nM.

As for `Cc1c(C(=O)NCCCN(C)C)sc2ncnc(Nc3ccc(F)cc3OCCC(F)(F)F)c12` [Compound 32-38], the IC50 turned out to be 26 nM.

Take `Cc1c(C(=O)NCCCN(C)C)sc2ncnc(Nc3ccc(F)cc3OCC(C)F)c12` (stereo not shown) [Compound 32-39]: the 50% inhibitory concentration (IC50) was determined as 35 nM.

Take `Cc1c(C(=O)NC2CCN(C)CC2)sc2ncnc(Nc3ccc(F)cc3OC(C)CC(F)(F)F)c12` (stereo not shown) [Compound 32-41]: the IC50 was 25 nM.

On to `Cc1c(C(=O)NCCCN2CCCC2)sc2ncnc(Nc3ccc(F)cc3OC(C)CC(F)(F)F)c12` (stereo not shown) [Compound 32-42], for which the concentration for half-maximal inhibition (IC50) came out at 12 nM.

`Cc1c(C(=O)NCCC2CCN(C)C2)sc2ncnc(Nc3ccc(F)cc3OC(C)CF)c12` (stereo not shown) [Compound 32-43]: the IC50 was 12 nM.

Take `Cc1c(C(=O)NCCCN2CCCC2)sc2ncnc(Nc3ccc(F)cc3OC(C)CF)c12` (stereo not shown) [Compound 32-44]: the half-inhibitory concentration (IC50) turned out to be 6 nM.

With `Cc1c(C(=O)NC2CCN(C)CC2)sc2ncnc(Nc3ccc(F)cc3OC(C)CF)c12` (stereo not shown) [Compound 32-45], the IC50 came to 11 nM.

In the case of `Cc1c(C(=O)O)sc2ncnc(Nc3ccc(F)cc3OC(C)CF)c12` (stereo not shown) [Compound 32.7], the IC50 stood at 5 nM.

As for `Cc1c(C(=O)NCCCN(C)C)sc2ncnc(Nc3cccnc3OCC3(CC#N)CC3)c12` [Compound 33, 4-(2-((1-(Cyanomethyl)cyclopropyl)methoxy)pyridin-3-ylamino)-N-(3-(dimethylamino)propyl)-5-methylthieno[2,3-d]pyrimidine-6-carboxamide hydrochloride], the IC50 came to 47 nM.

For the compound `Cc1c(C(N)=O)sc2ncnc(Nc3cccnc3OCC3(CC#N)CC3)c12` [Compound 33-4], the IC50 is 16 nM.

Regarding `Cc1c(C(=O)NCCCN(C)C)sc2ncnc(Nc3cccnc3OCC3CC3(F)F)c12` (stereo not shown) [Compound 34, 4-(2-((2,2-Difluorocyclopropyl)methoxy)pyridin-3-ylamino)-N-(3-(dimethylamino)propyl)-5-methylthieno[2,3-d]pyrimidine-6-carboxamide hydrochloride], the 50% inhibitory concentration (IC50) came out at 54 nM.

With `Cc1c(C(N)=O)sc2ncnc(Nc3cccnc3OCC3CC3(F)F)c12` (stereo not shown) [Compound 34-4], the IC50 came to 15 nM.

Regarding `Cc1c(C(N)=O)sc2ncnc(Nc3cccnc3OC(C)C)c12` [Compound 35, 4-(2-Isopropoxypyridin-3-ylamino)-5-methyl-thieno[2,3-d]pyrimidine-6-carboxamide], the IC50 was 12 nM.
